The results in this text go back to a melting point compilation (Tetko et al.; mined from patent text by program, amines drawn as free bases though some values may be those of a salt).

A value given as a limit tells only on which side of the number the result lay.

Broadly, the melting point is the temperature of the solid-liquid transition. In turn, `Cc1cn(C(C)(C)C(=O)N(C)C)nc1-c1ccccc1Cl` returned a melting point of 175 to 176 °C. For `COc1cc(OC)c(C23CC4CC(CC(C4)C2)C3)cc1C=O` the value was 152 to 154 °C; for `Cc1cc(NC(=O)OC(C)(C)C)c(C)c(C)c1O`, 158 to 161 °C. `COC(=O)c1ccc([N+](=O)[O-])c([N+](=O)[O-])c1` gave a melting point of 85 to 86 °C.

Take `Nc1c(NCc2ccccc2)ccnc1Cl`: the melting point is 176 to 179 °C. For `O=[N+]([O-])c1ccc(C=Cc2nc(Cl)c3ccccc3n2)o1` the value was 252 to 254 °C; for `CC1(C)CC(=O)N(c2ccc(OC(=O)N3CCc4ccccc4C3)nc2)C(=O)C1`, 156 to 158 °C; for `O=C(NC1CCc2c[nH]cc2C1)[C@@H]1CCCN1C(=O)[C@@H](CC1CCCCC1)NS(=O)(=O)Cc1ccccc1` (some centres undefined), 106 to 109 °C. For `Cc1cc(C)c2[nH]c(C(=O)NC(N)=S)cc2c1` the value was 220 to 223 °C; for `CS(=O)(=O)c1ccc(-c2cnn(CC(=O)c3ccc(Cl)cc3)c(=O)c2-c2ccc(F)cc2)cc1`, 186 to 188 °C. For `CCSc1ccc(C(=O)NCc2ccc3c(c2)C(=O)N(C2(C)CCC(=O)NC2=O)C3=O)nn1` (centres undefined) the value was 160 to 162 °C; for `COc1cccc(/C=C/C(=O)Nc2ccccc2C(=O)O)c1`, 183 to 184 °C; for `CS(=O)(=O)c1ccc(-c2ncccc2C(=O)c2ccccn2)cc1`, 143 to 147 °C. `Cc1cnc2ccc(-c3cccnc3)nn12` registered a melting point of 173 to 175 °C. For `CC1(C)CC(C)(c2ccc(Oc3cccc([N+](=O)[O-])c3)cc2)c2cc(Oc3cccc([N+](=O)[O-])c3)ccc21` (centres undefined) the value was 90 to 92 °C. For `CCn1cc(C(=O)O)c(=O)cc1Cl` the value was 155 to 157 °C. Molecule `CC(C)C1C(=O)N(CCl)S(=O)(=O)N1C` (centres undefined) displayed a melting point of 118 to 120 °C. For `CSc1nc(=O)c2cccc3c2n1-c1cc(C(F)(F)F)ccc1S3` the value was 229 to 231 °C.

As to `CC(C)(C)OC(=O)N[C@@H](Cc1cc(F)cc(F)c1)C(=O)CCl`, the melting point worked out at 139 °C. For `COC(=O)c1ccc(C(=NO)c2ccc(C(=O)OC)cc2)cc1` the value was 177 to 178 °C. For `CC(C)C(=O)c1cn(Cc2c(F)cccc2F)c2sc(-c3ccc([N+](=O)[O-])cc3)c(CN(C)Cc3ccccc3)c2c1=O` the value was 158 to 162 °C; for `CCOC(=O)C1=C(C)Nc2ccnc(OC(C)C)c2C1c1ccccc1C(F)(F)F` (centres undefined), 130 to 131 °C; for `CC(=O)NCC1CC(c2cc(F)c(N3CCN(C(=O)C4COc5ccccc5O4)CC3)c(F)c2)=NO1` (single isomer, unassigned; (-)), 158 to 159 °C. In the case of `C#CCn1c(Br)c(Br)c(Br)c1C#N`, the melting point lay in the range of 95 to 105 °C. Turning to `OCCNCCOc1ccc2cc3ccc(OCCNCCO)cc3nc2c1`, the melting point lay in the range of 125 to 127 °C. `Cc1ccc(C(=O)COc2ccc(F)cc2)cc1` came in with a melting point of 95 to 96 °C. The molecule `Cc1ncc(C=O)c(N)n1` came in with a melting point of 191 to 192 °C. For `CCCCCCCCCCCCOc1ccc2cc(C(C)C(=O)O)ccc2c1` (centres undefined), the melting point was in the range of 96 to 97 °C. For `c1ccc(Cc2ccc3c(c2)nc2n3CCCS2)cc1` the value was 145 to 147 °C; for `Oc1cc(Br)cc(I)c1`, 83 to 84 °C.

`Cc1cc2n(C)c3ccncc3c(=O)n2n1` gave a melting point of over 300 °C. Molecule `CC1(CN2CCC(C(=O)c3ccc(OC(F)(F)F)cc3)CC2)Cn2cc([N+](=O)[O-])nc2O1` (centres undefined) had a melting point of 113 to 115 °C. For `Cc1cc(SCc2sc(-c3ccc(C(F)(F)F)c(F)c3)nc2C)ccc1OCC(=O)O` the value was under 50 °C; for `CCN1C(=O)C(C(=O)c2cccs2)c2cc(Cl)cnc21` (centres undefined), 111 to 112 °C. For `N#CCc1cc(N)c(F)cc1Cl` the value was 85 to 86 °C; for `O=c1[nH]c2cc(C(F)(F)F)ccc2n1-c1cc(Cl)cc(Br)c1O`, 254 to 255 °C; for `Nc1c(C(O)(C(F)(F)F)C(F)(F)F)ccc2cc(O)ccc12`, 160 to 161 °C.

`CC(Oc1ccc(COc2ccc(Cl)cc2Cl)cc1)C(=O)O` (centres undefined): the melting point lay in the range of 122 to 123 °C. For `COC(=O)C(C)=Cc1cc(N=C=S)ccc1Cl`, the melting point lay within 60 to 61 °C. For `Nc1nc(=O)n(C(=O)Nc2cccc(Cl)c2)cc1F` the value was 250 to 252 °C.

`CC(C)c1cccc(S(=O)(=O)n2c(Cc3ccc(C(=O)O)cc3)cc3cc(Cl)ccc32)c1` showed a melting point of 181 °C. The molecule `COc1nc(Cc2nn(C)c(C)c2NS(=O)(=O)C(F)(F)F)nc(OC)n1` gave a melting point of 145 °C. For `COc1ccccc1C(=O)N1CCN(C(=O)CN2CCC(O)(c3ccccc3)CC2)C(c2ccc(Cl)c(Cl)c2)C1` (racemic) the value was 112 to 114 °C; for `N#CC(=NNc1ccc(C(F)(F)F)cc1)C(=O)NCc1ccc(Cl)nc1`, 204 to 205 °C; for `Fc1ccc(-c2nc(-c3ccc(CN4CCOCC4)cc3)[nH]c2-c2ccncc2)cc1`, 242 to 243 °C. For `CCOC(=O)CC[C@H](NC(=O)c1ccc(Br)cc1)C(=O)OCC` the value was 82.5 to 83.5 °C; for `O=C(Nc1ccc(-n2nc(C(F)(F)F)cc2C(F)(F)F)cc1)c1cc(F)cc(F)c1F`, 169 to 170 °C. `CCC(=O)N1CCNC1=Nc1ccc(Cl)cc1Cl` had a melting point of 126 to 128 °C. For `Nc1ccc2c(c1)S(=O)(=O)c1ccccc1-2` the value was 261 to 264 °C; for `NCc1cc(-c2csc(N=C(N)N)n2)ccn1`, over 210 °C. For `Clc1ncc(C(c2ccccc2)c2ccccc2)cc1C(c1ccccc1)c1ccccc1` the value was 131 to 133 °C; for `COC(=O)c1ccc(OCCC2CCN(c3cc(Cl)nnc3Cl)CC2)cc1`, 115 to 117 °C; for `CCc1nn(C)c2[nH]c(=O)c3ccccc3c12`, 291 to 294 °C. For `Oc1cccc(OCCCCOc2cccc(O)c2)c1` the value was 103 to 106 °C; for `Cn1ncc(C(=O)N2CCC2)c1C(=O)Nc1ccn2nc(N3CCCC3)nc2c1`, over 250 °C.

As to `CN(C)Cc1c(Cl)nc(-c2ccccc2)c2ccccc12`, the melting point was in the range of 75 to 77 °C.

`CN(CC#Cc1ccccc1)[C@H]1CC[C@H](c2ccc3[nH]c(=O)oc3c2)CC1` showed a melting point of 249 to 252 °C.

Regarding `CC(=O)Nc1ccc(C=NNC(N)=S)cc1Cl`, the melting point lay within 235 to 238 °C. For `CCOC1CC2(C)C(CCC3C2C(=O)CC2(C)C3CCC23OCCO3)CC1O` (centres undefined) the value was 142 to 145 °C; for `Fc1cccc(-c2ncc(-c3cnc(-c4ccccc4)nc3)[nH]2)c1`, 221 °C. In turn, `CCC(O)(CC)Cc1ccc(NC(=O)/C=C/c2cnn(C)c2-c2ccc(F)cc2)cc1` showed a melting point of 150 to 151 °C.

Turning to `Cc1nc2ccc3c(c2o1)OC(CN1CCC2(CC1)C(=O)NCN2c1ccccc1)CO3` (centres undefined), the melting point amounted to 240 °C.

`CCCc1nc2c(n1Cc1ccc(-c3ccccc3-c3nnn[nH]3)cc1)C(C(=O)OCC)N(C(C)=O)CC2` (centres undefined) returned a melting point of 184 to 185 °C. For `CC(C)(C)OC(=O)Oc1nc2c(N)ncnc2n1Cc1ccccc1` the value was 287 to 289 °C; for `CCCCCCCCCCCCCCCCNC(=O)Nc1sc(C(=O)O)c(C)c1C(=O)OC(C)(C)C`, 188 to 189 °C; for `Nc1cc(-c2ccccc2)ccc1Cl`, 91 to 92.5 °C. For `N#CCc1c[nH]c2ccc(NC(N)=S)cc12` the value was 212 to 214 °C. For `Cc1ccccc1NC(=O)Nc1ccc(C(=O)N2Cc3cccn3Cc3ccccc32)cc1` the value was 155 to 158 °C. `Cc1c(C)c2c(c(C)c1NC(=O)NC(C)(C)C)C(c1ccc(C(C)C)cc1)CO2` (centres undefined) returned a melting point of 201 to 202 °C. For `O=Cc1ccc2nccc(Oc3ccccc3)c2c1` the value was 112 to 115 °C; for `C#CCn1c(-c2cc(Cl)nc(Cl)c2)nc(C)c(CC)c1=O`, 143 to 144 °C; for `NS(=O)(=O)c1ccc(NN=C2C(=O)Nc3ccc(C(=O)NCc4cccnc4)cc32)cc1`, 211 to 215 °C. For `COC(=O)c1cc(COc2c(OC)c3cocc(OC)c-3c2C(C)=O)ccc1COc1c(OC)c2cocc(OC)c-2c1C(C)=O` the value was 87 to 89 °C; for `Cc1cccc(C(O)CSC(=S)Nc2ccc(Cl)cn2)c1` (centres undefined), 122 °C; for `Cc1ccc(-c2nc(Cc3cccc(CO)c3)c(C)o2)cc1`, 97 to 99 °C. For `O=C(Nc1nc(-c2ccco2)c(C(=O)C2CCSCC2)s1)c1ccncc1` the value was 203 to 210 °C; for `COc1ccc(Cl)cc1C(=O)CCC(=O)O`, 113 to 115 °C. The molecule `CSCc1cc(=O)c2ccccc2o1` registered a melting point of 77 to 79 °C. For `FC(F)(F)Oc1ccc2nc(C(F)(F)F)[nH]c2c1` the value was 158 to 160 °C.

In the case of `Cc1ccccc1C(=O)Nc1ccc(C(=O)N2CCCC(N(C)C)c3ccccc32)c(C)c1` (centres undefined), the melting point was 183 to 185 °C. For `O=C(OC1CCCCC1=O)c1ccc([N+](=O)[O-])cc1` (centres undefined), the melting point was in the range of 124 to 125 °C.

In turn, `O=c1oc(-c2ccc(CCc3ccccc3)cc2)cc(O)c1SCCc1ccccc1` showed a melting point of 122 to 123 °C. For `COc1ccc([C@H](O)[C@@H](Cc2ccc(C(F)(F)F)cc2)NC(=O)c2ccc(F)c3ccccc23)cc1` (racemic) the value was 184 to 185 °C; for `OC(c1ccnc2cc(Cl)ccc12)C(F)(F)F` (centres undefined), 161 °C; for `Cc1c(C(=O)OCc2ccccc2)sc(NC(=O)C(F)(F)F)c1C(=O)OC(C)(C)C`, 136 to 138 °C. For `CCOCCC(=O)NN` the value was 34 °C.

As for `O=CNNc1ccc(NC(=S)NC2CCCCC2)cc1`, the melting point lay in the range of 158 to 160 °C. For `CC(C)C[C@H](NC(=O)Nc1n[nH]c(=S)s1)C(=O)NCc1ccccc1`, the melting point lay within 206 to 208 °C.

Molecule `CC(C)N(CCN1C(=O)C(=O)c2cc(F)ccc21)C(C)C` returned a melting point of 100 to 102 °C.
